Test results: ChEMBL document CHEMBL1201862, “PubChem BioAssay data set” (2004)
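96-well plates; 48 h exposure; 5 concentrations. Endpoints by linear interpolation between flanking doses. Not reached: highest tested concentration assigned. At the GI50, growth is halved.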 The source made the active and inactive calls. Cut-off read from the data, not from the text of the source: active = GI50 up to about 1.1 µM and inactive = higher.

Columns and labels:
Assay in all cases: NCI-60 cell line screen, 48 h
[1] = tested on: NCI-H226
[2] = tested on: SNB-19
[3] = tested on: SK-MEL-28
[4] = tested on: MDA-MB-231
[5] = tested on: SW-620
[6] = tested on: SK-MEL-5
[7] = tested on: A549
[8] = tested on: HOP-62
[9] = tested on: SK-MEL-2
[10] = tested on: U-251
[11] = tested on: SF-268
[12] = tested on: HCT-116
[13] = tested on: NCI-H460
[14] = tested on: HCT-15
[15] = tested on: OVCAR-3
[16] = tested on: PC-3
[17] = tested on: Malme-3M
[18] = tested on: TK-10
[19] = tested on: RPMI-8226
[20] = tested on: LOX IMVI

Structure (SMILES)	GI50 [1]	GI50 [2]	GI50 [3]	GI50 [4]	GI50 [5]	GI50 [6]	GI50 [7]	GI50 [8]	GI50 [9]	GI50 [10]	GI50 [11]	GI50 [12]	GI50 [13]	GI50 [14] [µM]	GI50 [15]	GI50 [16]	GI50 [17]	GI50 [18]	GI50 [19]	GI50 [20]
COc1cc2nc(-c3cccs3)nc(Cl)c2cc1OC	> 100 µM (inactive)	> 100 µM (inactive)	> 100 µM (inactive)	> 100 µM (inactive)	> 100 µM (inactive)	12 µM (inactive)	> 100 µM (inactive)	> 100 µM (inactive)	> 100 µM (inactive)	> 100 µM (inactive)	> 100 µM (inactive)	> 100 µM (inactive)	> 100 µM (inactive)	> 100	93.3 µM (inactive)	> 100 µM (inactive)	> 100 µM (inactive)	> 100 µM (inactive)		
Nc1cc2[nH]c(=O)c3cc(Cl)ccc3c2cc1Cl	0.0649 µM (active)	8.47 µM (inactive)	60.4 µM (inactive)	14.1 µM (inactive)	8.55 µM (inactive)	12.1 µM (inactive)	12.9 µM (inactive)	16.8 µM (inactive)	25 µM (inactive)	10.9 µM (inactive)	11.3 µM (inactive)	5.15 µM (inactive)	5 µM (inactive)	8.17	12.4 µM (inactive)		14.7 µM (inactive)	11.8 µM (inactive)	0.514 µM (active)	11.1 µM (inactive)
N#C/C=c1/c2ccccc2n2nc3ccccc3c12		16 µM (inactive)	> 100 µM (inactive)	3.61 µM (inactive)	25.6 µM (inactive)	26.7 µM (inactive)	30.2 µM (inactive)	17 µM (inactive)	48.6 µM (inactive)	12 µM (inactive)	10.9 µM (inactive)	3.09 µM (inactive)	8.09 µM (inactive)	43.3	34.5 µM (inactive)	68.4 µM (inactive)	46.6 µM (inactive)	8.02 µM (inactive)	7.36 µM (inactive)	8.13 µM (inactive)
COc1ccc(/C=C2/C[N+](C)(C)C/C(=C/c3ccc(OC)cc3)C2=O)cc1	20.9 µM (inactive)	43.3 µM (inactive)	12.9 µM (inactive)		42.7 µM (inactive)	23.4 µM (inactive)	> 76.4 µM (inactive)	> 100 µM (inactive)	25.6 µM (inactive)	19.5 µM (inactive)	26.9 µM (inactive)	32.5 µM (inactive)	38.2 µM (inactive)	> 100	30 µM (inactive)		22.5 µM (inactive)	> 100 µM (inactive)	5.7 µM (inactive)	88.1 µM (inactive)
O/N=C(/C(Cl)=C(Cl)Cl)C(Cl)Cl	31 µM (inactive)	31.5 µM (inactive)	15.2 µM (inactive)	19.2 µM (inactive)	20.4 µM (inactive)	19.5 µM (inactive)	> 100 µM (inactive)	23.3 µM (inactive)		19.5 µM (inactive)	17 µM (inactive)	17.9 µM (inactive)	37.2 µM (inactive)	17.2	19.6 µM (inactive)	17.3 µM (inactive)	28.8 µM (inactive)	18.3 µM (inactive)	14.2 µM (inactive)	17.2 µM (inactive)
O=C1C=Cc2ncccc2C1=O	> 44.9 µM (inactive)	> 78.3 µM (inactive)	24.4 µM (inactive)		15.4 µM (inactive)	14.9 µM (inactive)	30.8 µM (inactive)	> 54.8 µM (inactive)	18.5 µM (inactive)	24.4 µM (inactive)	34.4 µM (inactive)	16.9 µM (inactive)	20 µM (inactive)	18.1	23.9 µM (inactive)		29.9 µM (inactive)	> 44.9 µM (inactive)	24.1 µM (inactive)	13.5 µM (inactive)
O=C(Nc1ccccc1Br)c1cccc([N+](=O)[O-])c1O	3.3 µM (inactive)	3.81 µM (inactive)	4.37 µM (inactive)		6.81 µM (inactive)	2.16 µM (inactive)	3.37 µM (inactive)	2.32 µM (inactive)	6.9 µM (inactive)	2.85 µM (inactive)	4.47 µM (inactive)	3.84 µM (inactive)	4.6 µM (inactive)	4.6	2.07 µM (inactive)		2.48 µM (inactive)	1.54 µM (inactive)	1.52 µM (inactive)	2.38 µM (inactive)
NC(=O)c1ccccc1NC(=O)C(=O)C(C(=O)c1ccc2ccccc2c1)C1OC(=O)c2ccccc21 (configuration not stated)	2.85 µM (inactive)	4.04 µM (inactive)	7.23 µM (inactive)		8.24 µM (inactive)	12 µM (inactive)	16.3 µM (inactive)	10.2 µM (inactive)	14.8 µM (inactive)	4.86 µM (inactive)	4.48 µM (inactive)	9.71 µM (inactive)	> 100 µM (inactive)	16.7	11.7 µM (inactive)		10.4 µM (inactive)	22.6 µM (inactive)	8.91 µM (inactive)	11.3 µM (inactive)
COc1ccc(N[S+]([O-])c2ccc(-c3ccccc3)cc2)cc1 (configuration not stated)	> 100 µM (inactive)	41.8 µM (inactive)	91.4 µM (inactive)	> 100 µM (inactive)	70.8 µM (inactive)	> 100 µM (inactive)	> 100 µM (inactive)	52 µM (inactive)		35.1 µM (inactive)	30.9 µM (inactive)	> 100 µM (inactive)	> 100 µM (inactive)	> 100	> 100 µM (inactive)	22.3 µM (inactive)	> 100 µM (inactive)	> 100 µM (inactive)	> 100 µM (inactive)	19.5 µM (inactive)
Cc1c(Cl)ccc2c1NC(=O)C2(O)C1Cc2ccccc2C1=O (configuration not stated)	> 100 µM (inactive)	> 100 µM (inactive)	> 100 µM (inactive)		> 100 µM (inactive)	> 100 µM (inactive)	> 100 µM (inactive)	> 100 µM (inactive)	> 100 µM (inactive)	27.7 µM (inactive)	> 100 µM (inactive)	62.7 µM (inactive)	> 100 µM (inactive)	> 100	> 100 µM (inactive)		> 100 µM (inactive)	> 100 µM (inactive)	42.5 µM (inactive)	> 100 µM (inactive)
O=C(O)C(Cc1ccc(O)cn1)NC(=O)C(F)(F)F (configuration not stated)	> 100 µM (inactive)	> 100 µM (inactive)	> 100 µM (inactive)	> 100 µM (inactive)	> 100 µM (inactive)	> 100 µM (inactive)	> 100 µM (inactive)	> 100 µM (inactive)		> 100 µM (inactive)	> 100 µM (inactive)	> 100 µM (inactive)	> 100 µM (inactive)	> 100	> 100 µM (inactive)	> 100 µM (inactive)	> 100 µM (inactive)	> 100 µM (inactive)	> 100 µM (inactive)	> 100 µM (inactive)
COC(=O)C(=O)C(CC(=O)Nc1ccc(C)cc1)C(=O)OC (configuration not stated)	> 100 µM (inactive)	> 100 µM (inactive)	> 100 µM (inactive)		> 100 µM (inactive)	> 100 µM (inactive)	> 100 µM (inactive)	> 100 µM (inactive)	> 100 µM (inactive)	> 100 µM (inactive)	> 100 µM (inactive)	> 100 µM (inactive)	> 100 µM (inactive)	> 100	> 100 µM (inactive)		> 100 µM (inactive)	> 100 µM (inactive)	> 100 µM (inactive)	> 100 µM (inactive)
O=S(=O)(O)c1ccc2cccc(/N=N\c3c(O)ccc4ccccc34)c2c1	> 100 µM (inactive)	> 100 µM (inactive)		> 100 µM (inactive)	> 100 µM (inactive)	> 100 µM (inactive)	> 100 µM (inactive)	> 100 µM (inactive)	> 100 µM (inactive)	> 100 µM (inactive)	> 100 µM (inactive)	> 100 µM (inactive)	> 100 µM (inactive)	> 100	> 100 µM (inactive)	> 100 µM (inactive)	> 100 µM (inactive)	> 100 µM (inactive)		
O=C(O)Cn1ccc(=O)c2ccc([N+](=O)[O-])cc21	> 100 µM (inactive)	> 100 µM (inactive)	> 100 µM (inactive)	28.8 µM (inactive)	> 100 µM (inactive)	> 100 µM (inactive)	> 100 µM (inactive)	> 100 µM (inactive)	> 100 µM (inactive)	> 100 µM (inactive)	> 100 µM (inactive)	> 100 µM (inactive)	> 100 µM (inactive)	> 100	> 100 µM (inactive)	> 100 µM (inactive)	> 100 µM (inactive)	> 100 µM (inactive)		
CC1(C)[C@@H]2C[C@H]1C(Cc1ccccc1C[C@H]1c3cc(-c4ccccn4)ncc3[C@H]3C[C@@H]1C3(C)C)c1cc(-c3ccccn3)ncc12 (some centres not stated)		0.611 µM (active)	0.527 µM (active)	0.587 µM (active)	0.6 µM (active)	0.0834 µM (active)	0.371 µM (active)	0.147 µM (active)		0.324 µM (active)	0.292 µM (active)	0.342 µM (active)	0.337 µM (active)	0.41	0.387 µM (active)	0.47 µM (active)	0.678 µM (active)	0.638 µM (active)	0.348 µM (active)	0.361 µM (active)
COc1ccc2[nH]c3c(O)nncc3c2c1	> 100 µM (inactive)	> 100 µM (inactive)	> 100 µM (inactive)		> 100 µM (inactive)	> 100 µM (inactive)	> 100 µM (inactive)	> 100 µM (inactive)	71.3 µM (inactive)	> 100 µM (inactive)	> 100 µM (inactive)	> 100 µM (inactive)	> 100 µM (inactive)	> 100	> 100 µM (inactive)		> 100 µM (inactive)	> 100 µM (inactive)	> 100 µM (inactive)	> 100 µM (inactive)
